In patent US20160263169A1, “COMPOSITION COMPRISING AN EXTRACT OF COMBINED HERB CONSISTING OF HEAT PROCESSED GINSENG, HOUTTUYNIAE HERBA, PERILLA LEAF AND TEA LEAF OR THE PROCESSED EXTRACT THEREOF AS AN ACTIVE INGREDIENT SHOWING HAIR-STIMULATING ACTIVITY AND PREVENTING ACTIVITY FROM HAIR LOSS, AND THE USE THEREOF” (GINSENG SCIENCE INC., priority 2015, published 2016):

Test system: C57BL/6 mouse
Assay: Promoting effect on hair growth (hair-regrown area/shaved area) in shaved C57BL/6 mouse
Format: in vivo
Settings: 2.5 mg spread on the back of mouse once a day
Procedure: 6 weeks-old mouse (C57BL/6, 18-20 g, at the beginning of catagen, Orient Bio Inc. Seoul, Korea) was accustomed to the breeding environment for 1 week and anesthetized intramuscularly with an anesthetizer (2.5 mg/mouse, Ketamine, rompun, Bayer Korea Inc.). The back-hair of anesthetized mouse was removed by a grainer and the mice were divided into four groups consisting of 10 mice, respectively, i.e., (1) negative control group: treatment group with only solvent, (2) positive control group: treatment group with Minoxidil (0.5%, w/w), (3) comparative test group: treatment group with the extract prepared in Comparative Example 1 dissolved in adjuvant in a dose dependent manner, (4) test sample group: treatment group with the extract prepared in Examples dissolved in adjuvant in a dose dependent manner. 2.5 mg of the test samples was spread on the back of mouse once a day for 20 days.
The ratio of hair-regrown area/shaved area was quantitatively analyzed by image analyzer (Image-Pro, USA) after shooting the hair-grown area with digital camera (Canon, Japan) and the test result was scored to 5 scores, i.e., score 0: ineffective; score 1: merely effective; score 2: favorably effective; score 3; potently effective; score 4; most potently effective as shown in Table 2.

SMILES: Nc1cc(N2CCCCC2)nc(N)[n+]1[O-] [Positive control, Minoxidil]
- Criteria (5th day): IE (Ineffective (IE))
- Hair growth ratio (5th day): 14%
- Score (5th day): 0 (0-20%)
- Criteria (10th day): FE (favorably effective (FE))
- Hair growth ratio (10th day): 42%
- Score (10th day): 2 (40-60%)
- Criteria (15th day): PE (potently effective (PE))
- Hair growth ratio (15th day): 62%
- Score (15th day): 3 (60-70%)
- Criteria (20th day): PE (potently effective (PE))
- Hair growth ratio (20th day): 68%
- Score (20th day): 3 (60-70%)
